Experimental data taken from paper PMC6063323, “Synthesis, radiosynthesis, in vitro and first in vivo evaluation of a new matrix metalloproteinase inhibitor based on γ-fluorinated α-sulfonylaminohydroxamic acid” (EJNMMI Radiopharmacy and Chemistry, 2018).
Read-outs that look alike come from different tables or passages of the source.

Columns and labels:
MMP-9 = conditions: cited from earlier work
MMP-2 = conditions: cited from earlier work
activated MMP-2 = molecular target: T1, activated MMP-2 (Homo sapiens, UniProt P08253); experiment: fluorometric in vitro MMP-2 inhibition assay; assay type: biochemical; conditions: SD from three independent experiments; enzyme 2 nM, 37 °C, 30 min preincubation
T1 sequence (P08253 110-660): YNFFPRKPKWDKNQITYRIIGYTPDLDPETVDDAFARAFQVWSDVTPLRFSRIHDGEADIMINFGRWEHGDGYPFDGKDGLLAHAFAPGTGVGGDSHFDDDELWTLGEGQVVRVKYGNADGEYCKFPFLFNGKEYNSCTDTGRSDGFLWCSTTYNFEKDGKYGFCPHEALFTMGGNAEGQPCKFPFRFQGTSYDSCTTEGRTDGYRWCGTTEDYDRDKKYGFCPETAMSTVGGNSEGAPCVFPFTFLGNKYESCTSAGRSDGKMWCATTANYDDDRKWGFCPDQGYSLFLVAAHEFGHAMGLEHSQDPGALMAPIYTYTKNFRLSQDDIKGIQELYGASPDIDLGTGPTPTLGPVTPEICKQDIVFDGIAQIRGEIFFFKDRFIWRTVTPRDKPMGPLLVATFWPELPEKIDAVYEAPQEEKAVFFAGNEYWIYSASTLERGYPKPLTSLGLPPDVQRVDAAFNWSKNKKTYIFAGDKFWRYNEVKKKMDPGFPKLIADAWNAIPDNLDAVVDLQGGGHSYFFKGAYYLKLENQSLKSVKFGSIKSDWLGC
Method: (§1) The inhibition potencies of (R)-9a and (S)-9a against activated MMP-2 and -9 were assayed using the synthetic fluorometric substrate (7-methoxycoumarin-4-yl)acetyl-Pro-Leu-Gly-Leu-(3-(2,4-dinitrophenyl)-L-2,3-diaminopropionyl)Ala-Arg-NH2 (R&D Systems) as described previously (Huang et al. [1997]). Briefly, MMP-2 and -9 (each at 2 nM) and test compounds at varying concentrations (10 pM to 1 mM) in Tris (50 mM), pH 7.5, containing NaCl (0.2 M), CaCl2 (5 mM), ZnSO4 (20 μM), and 0.05% Brij 35 were preincubated at 37 °C for 30 min. An aliquot of substrate (10 μL of a 50 μM solution) was added to the enzyme inhibitor mixture (90 μL), and the fluorescence changes were monitored using a TriStar2 Multimode Reader LB 942, (Berthold) with excitation and emission wavelengths of 340 and 405 nm, respectively. Reaction rates were measured from the initial 10 min and plotted as a function of inhibitor concentration. From the resulting inhibition curves, the IC50 values were calculated by nonlinear regression analysis using the Grace 5.1.8 software (Linux).
(§2) The MMP inhibition potencies of the hydroxamic acids (R)-9a and (S)-9a (Fig. 2) against MMP-2 and -9 were measured by fluorometric in vitro inhibition assays, following the previously described procedure (Huang et al. [1997]).

activated MMP-9 = activated MMP-9 (Homo sapiens, UniProt P14780); experiment: fluorometric in vitro MMP-9 inhibition assay; assay type: biochemical; conditions: SD from three independent experiments; enzyme 2 nM, 37 °C, 30 min preincubation
Method: as §1, §2

[1] = set-up: method as in Wagner et al., [2011]; conditions: ref Wagner et al., [2011], cited from earlier work
[2] = water/octanol partition coefficient logD (exp.); assay type: physicochemical; conditions: for logD: 1-octanol/PBS pH 7.4, determined for (S)-[^18F]9a
Method: The lipophilicity of the radioligand (S)-[^18F]9a was assessed by determination of the water/octanol partition coefficients following a published procedure (Prante et al. [2006]). In brief, approximately 20 kBq of (S)-[^18F]9a were mixed with equal amounts (0.5 mL) of PBS (pH 7.4) and 1-octanol and the resulting biphasic system was mixed vigorously for 1 min at rt. The tubes were centrifuged (3000 rpm, 2 min) and 400 μL of the octanol phase were separated and again mixed with equal amounts (400 μL) of PBS. The resulting biphasic system was again mixed vigorously of 1 min at rt. After centrifugation (3000 rpm, 2 min) three samples of 100 μL of each layer were counted in a gamma counter (Wallac Wizard, Perkin-Elmer Life Science). The partition coefficient was determined by calculating the ratio cpm(octanol)/cpm(PBS) and expressed as logD (exp.) (log(cpmoctanol/cpmPBS)). Two independent experiments were performed in triplicate and data were provided as mean values ± standard deviation.
Radiosynthesis of the ^18F-labelled counterpart (S)-[^18F]9a was accomplished via direct nucleophilic substitution reaction of the tosylate precursor (S)-9b by [^18F]fluoride according to the synthesis described for [^18F]FEtO-CGS 25966 (Wagner et al. [2011]). The radiosynthesis provided (S)-[^18F]9a with radiochemical yields of 31–46% (n = 3), radiochemical purities of > 97% in 95–110 min from the end of radionuclide production and molar activities of 2.8–3.4 GBq/μmol after radiosynthesis. The experimental logD value of the radioligand was determined in phosphate-buffered saline (PBS) as already described (Prante et al. [2006]).

[3] = small animal PET in vivo biodistribution after intravenous injection; set-up: species or system C57/BL6 mice
Method: Adult C57/BL6 mice (male, 21–23 g) were anesthetized by isoflurane/O2, and one lateral tail vein was cannulated using a 27 Ga needle connected to 15 cm polyethylene catheter tubing. (S)-[^18F]9a (500 kBq/g bodyweight) was injected as a bolus (50 μL of compound flushed with 100 μL of saline) via the tail vein, and subsequent PET scanning was performed.
PET experiments were carried out using a sub-millimeter high resolution (0.7 mm full width at half maximum) small animal scanner (32 module quadHIDAC, Oxford Positron Systems Ltd., Oxford, UK) with uniform spatial resolution (< 1 mm) over a large cylindrical field (165 mm diameter, 280 mm axial length) (Schäfers et al. [2005]).
List-mode data were acquired for 120 min and reconstructed into dynamic time frames using an iterative reconstruction algorithm. Subsequently, the scanning bed was transferred to the computed tomography (CT) scanner (Inveon, Siemens Medical Solutions, U.S.) and a CT acquisition with a spatial resolution of 80 μm was performed for each mouse. Reconstructed image data sets were co-registered based on extrinsic markers attached to the multimodal scanning bed and the image analysis software (Inveon Research Workplace 3.0, Siemens Medical Solutions, USA). Three-dimensional volumes of interest (VOIs) were defined over the respective organs in CT data sets, transferred to the co-registered PET data and analyzed quantitatively. Regional uptake was calculated as percentage of injected dose by dividing counts per milliliter in the VOI by total counts in the mouse multiplied by 100 (%ID/mL). Routes of tracer elimination were assessed by VOI segmentation of kidneys and bladder (renal route), and liver, gall bladder, small and large intestine (hepatobiliary route). Total activity for each route was calculated as percentage of injected dose by dividing the total counts in the respective VOI by total counts in the mouse multiplied by 100 (%ID).
Maximum intensity projections (MIPs) of the whole body in vivo biodistribution of tracer-associated radioactivity in an adult C57/Bl6 mouse 0–2, 2–5, 5–10, 20–30 and 80–90 min after intravenous injection of (S)-[^18F]9a are shown in Fig. 3.

[4] = in vivo biostability and metabolism study (radio-HPLC of plasma, urine and tissue homogenates); set-up: species or system OCR (CD1) wild type mice; conditions: 30 min p.i., mouse
Method: Approximately 11.1 MBq (S)-[^18F]9a (in a maximum volume of 200 μL) was injected into three mice each via tail vein injection. The animals were sacrificed at 30 min p.i.. Whole blood was obtained, weighed, and centrifuged at 3000 rpm (3 min) to isolate plasma. Urine was also collected. The muscle, brain, kidneys, and liver were harvested and homogenized in lysis buffer (1% SDS in PBS buffer). An aliquot of each sample (400 μL) was subsequently removed, mixed with 400 μL of acetonitrile and 100 μL of 3% acetic acid in acetonitrile, vigorously mixed, and placed on dry ice for 3 min. After thawing, the samples were centrifuged at 13000 rpm (8 min) to allow for the separation of supernatant from the pellet. The supernatant was then removed and assayed for radioactivity in a PerkinElmer Wizard γ-counter (20 s). The samples were analyzed by HPLC, using a γ-detector (Raytest GmbH/Agilent). HPLC was done on a Phenomenex C18 column (250 mm × 4.6 mm) using a gradient method with acetonitrile and water (both having 0.05% TFA).
An in vivo biostability and metabolism study was performed in three 10-month old female OCR (CD1) wild type mice 30 min p.i.

[5] = Table 1, ref Mac Pherson et al. [1997], Scozzafava et al. 2000, Behrends et al. [2015], read-out: IC50 values MMP-9
[6] = Table 1, ref Mac Pherson et al. [1997], Scozzafava et al. 2000, Behrends et al. [2015], read-out: IC50 values MMP-2
[7] = ref Behrends et al., [2015], read-out: IC50 MMP-9
[8] = ref Behrends et al., [2015], read-out: IC50 MMP-2

activated MMP-9, sequence (P14780 107-707 limits assumed): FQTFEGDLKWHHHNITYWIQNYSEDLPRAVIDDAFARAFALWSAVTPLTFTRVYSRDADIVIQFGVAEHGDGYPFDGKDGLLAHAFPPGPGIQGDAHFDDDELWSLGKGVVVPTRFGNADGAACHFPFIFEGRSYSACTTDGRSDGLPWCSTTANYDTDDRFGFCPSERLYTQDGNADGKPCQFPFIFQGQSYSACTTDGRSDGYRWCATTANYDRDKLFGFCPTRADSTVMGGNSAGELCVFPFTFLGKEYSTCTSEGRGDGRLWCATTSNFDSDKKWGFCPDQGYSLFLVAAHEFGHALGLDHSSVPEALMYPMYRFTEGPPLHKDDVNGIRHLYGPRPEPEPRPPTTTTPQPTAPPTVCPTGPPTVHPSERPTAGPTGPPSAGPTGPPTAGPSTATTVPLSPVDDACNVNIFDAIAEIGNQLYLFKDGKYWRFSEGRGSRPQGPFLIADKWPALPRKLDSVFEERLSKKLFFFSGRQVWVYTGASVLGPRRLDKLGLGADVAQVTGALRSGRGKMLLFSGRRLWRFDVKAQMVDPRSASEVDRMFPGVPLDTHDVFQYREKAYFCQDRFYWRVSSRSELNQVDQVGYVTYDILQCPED

## COc1ccc(S(=O)(=O)N(Cc2cccnc2)[C@H](CCF)C(=O)NO)cc1 [(R)-1]
MMP-9; [5]
  IC50: 12.3 nM
MMP-2; [6]
  IC50: 6.4 nM

## C=C(F)C[C@H](C(=O)NO)N(Cc1cccnc1)S(=O)(=O)c1ccc(OC)cc1 [(R)-2]
MMP-9; [5]
  IC50: 8.3 nM
MMP-9; [7]
  IC50: 8.3 ± 0.1 nM
MMP-2; [6]
  IC50: 9.3 nM
MMP-2; [8]
  IC50: 9.3 ± 2 nM

## C=C(F)C[C@H](C(=O)NO)N(Cc1ccccc1)S(=O)(=O)c1ccc(OCCF)cc1 [(R)-9a]
Activated MMP-2
  IC50: 10.4 ± 5.9 nM
Activated MMP-9
  IC50: 0.5 ± 0.3 nM

## COc1ccc(S(=O)(=O)N(Cc2cccnc2)[C@@H](C(=O)NO)C(C)C)cc1 [(R)-CGS 27023A]
MMP-9; [5]
  IC50: 8 nM
MMP-2; [6]
  IC50: 20 nM

## CC(C)[C@H](C(=O)NO)N(Cc1ccccc1)S(=O)(=O)c1ccc(OCCF)cc1 [(R)-FEtO- CGS 25966]
MMP-9; ref Wagner et al., [2011], read-out: IC50 MMP-9
  IC50: 50 ± 27 nM
[1]
  logD (exp.): 2.02 ± 0.03
[1]; listed as the analog derived from CGS 25966
  logD (exp.): 2.0
MMP-2; ref Wagner et al., [2011], read-out: IC50 MMP-2
  IC50: 4 ± 3 nM

## COc1ccc(S(=O)(=O)N(Cc2cccnc2)[C@@H](CCF)C(=O)NO)cc1 [(S)-1]
MMP-9; [5]
  IC50: 3 nM
MMP-2; [6]
  IC50: 32.8 nM

## C=C(F)C[C@@H](C(=O)NO)N(Cc1cccnc1)S(=O)(=O)c1ccc(OC)cc1 [(S)-2]
MMP-9; [5]
  IC50: 4.9 nM
MMP-9; [7]
  IC50: 4.9 ± 0.4 nM
MMP-2; [6]
  IC50: 7.2 nM
MMP-2; [8]
  IC50: 7.2 ± 0.1 nM

## C=C(F)C[C@@H](C(=O)NO)N(Cc1ccccc1)S(=O)(=O)c1ccc(OCCF)cc1 [(S)-9a, (S)-2-[N-Benzyl-4-(2-fluoroethoxy)phenylsulfonamido]-4-fluoro-N-hydroxypent-4-enamide]
Activated MMP-2
  IC50: 0.3 ± 0.03 nM
[2]
  logD: 1.16 ± 0.2
Activated MMP-9
  IC50: 0.1 ± 0.01 nM

## C=C(F)C[C@@H](C(=O)NO)N(Cc1ccccc1)S(=O)(=O)c1ccc(OCC[18F])cc1 [(S)-[^18F]9a, (S)-2-[N-Benzyl-4-(2-[^18F]fluoroethoxy)phenylsulfonamido]-4-fluoro-N-hydroxypent-4-enamide]
[3]; 80–90 min p.i., mouse, i.v.
  tracer remaining in non-excretion organs: no significant tracer remaining
[3]; 90 min post injection
  injected tracer activity cleared from the blood and tissues: 73%
[3]; entire dynamic imaging study, mouse
  defluorination in vivo (bone uptake of [^18F]fluoride ions): not observed
[3]; mouse, i.v., PET
  accumulation in brain, myocardium, lung and muscles (unspecific binding): not observed
  clearance of tracer and metabolites by renal excretion: 8%
  clearance of tracer and metabolites through the liver and the gallbladder: 92%
[4]
  extent of metabolism in plasma (into four metabolites): about 92%
  extent of metabolism in plasma, kidneys, urine, muscle and brain: about 90%
[4]; radio-HPLC
  share of radioactivity in brain: 12 % HPLC
  share of radioactivity in kidney: 17 % HPLC
  share of radioactivity in liver: 1 % HPLC
  share of radioactivity in muscle: 17 % HPLC
  share of radioactivity in plasma: 8 % HPLC
[4]; to four polar metabolites
  metabolism of the parent compound in urine: complete metabolism
[2]
  logD: 1.16
[2]; from experimental logD values
  hydrophilicity in comparison to [^18F]FEtO-CGS25966: 7 times
